Measurements: patent US20200345746A1, “Oxazine Derivative for Use in the Prevention of Alzheimer's Disease in at Risk Patents” (Novartis AG, priority 2016, published 2020)

Legend:
Aβ42 [1] = test: 3-month dose-ranging study: Aβ42 in CSF; assay type: in vivo, human; settings: for Aβ42 % change from baseline, Mean (SD) / Aβ42 % change from baseline, Median: CSF, 3 months
From the text: This study is listed in ClinicalTrials.gov under the NCT02576639 Identifier code.
The primary purpose of this study was to expand on previous safety and tolerability data obtained over 2-week and 4-week duration in the first in human study and thereby allow initiation of future long-term efficacy trials in subjects at risk of AD. In addition, data relevant for Pharmacokinetic/Pharmacodynamic modeling was obtained in order to support dose selection decisions for future efficacy studies.
In the completed first-in-human and 3-month dose-ranging safety and tolerability clinical studies described in Examples 5 and 6, Aβ concentrations in CSF were obtained by means of lumbar punctures before the first dose (baseline) and respectively after 2 weeks and 3 months of multiple dosing. ApoE4 genotype also was obtained in the subjects who consented. The percent change from baseline in Aβ40 and Aβ42 concentrations was calculated in subjects who took the study treatment and had no major protocol deviation with potential impact on the evaluation of the pharmacodynamic effect. Tables 18 to 21 below provide summary statistics of the percent change from baseline by treatment group and ApoE genotype (E4 heterozygotes versus E4 non-carriers). Only one subject with CSF data was E4 homozygote (from the 3-month dose-ranging safety and tolerability study).

sAPPα = test: Triton TX-100 soluble sAPPα in APP23 mouse brain; assay type: in vivo; settings: APP23 mice
Description: (§1) Frozen mouse forebrains were weighed and homogenized in 9 volumes (w/v) of ice-cold TBS-Complete (20 mM Tris-HCl pH 7.4, 137 mM NaCl, 1× Complete [Protease Inhibitor Cocktail Tablets: 1 836 145, Roche Diagnostics GmbH, Penzberg, Germany]) by sonication (90% duty cycle, output control 5, 40-55 pulses, [Sonifier 450, Branson]). After homogenization several 50 μl aliquots were prepared for analysis and were stored at −80° C.
Brain homogenates were extracted with 1% Triton X-100 in buffer and the resulting supernatant was considered to represent soluble forms of APP metabolites. In addition to Aβ40 and 42, we determined the N-terminal APP fragments sAPPα (direct cleavage product of α-secretase) and sAPPβ (Swe) (direct product of BACE1 cleavage). […] Since no change in the APP expression and Aβ generation is known to happen during this age, it is assumed that the increased values in the vehicle group (18-20 mo old) arise from “leakage” out of the Aβ deposits (which increase several fold, see below).

Aβ40 = test: Formic acid soluble Aβ40 in APP23 mouse forebrain; assay type: in vivo
Description: as §1
(§2) Fifty microliter of forebrain homogenate was mixed with 116.6 μl 100% formic acid, resulting in a final formic acid concentration of 70%. Samples were stored on ice and vortexed every 5 minutes. For neutralization, 50 μl of the mixture were pipetted into a new tube, and 950 μl of 1 M Tris base, containing 1× Complete Protease inhibitor, was added. Tubes were stored at room temperature overnight and then centrifuged for 15 minutes at 14000 rpm in an Eppendorf Microzentrifuge at 4° C. From the top layer, 100 μl are removed and mixed with 100 μl of 3% Blocker A solution (part of the MesoScale assay kit). This sample was either directly applied to the assay plate (dilution 1:1332) or further diluted in 1% Blocker A solution.

in vivo = settings: C57BL/6, mouse; for AUC(0-t): po, AUCblood (AUC0-24 h)
From the text: Blood samples were used to analyze whole-blood compound levels and were obtained either from tail-vein during the in-life part into EDTA tubes (CB300, Sarstedt, Germany) or from trunk blood at the day of necropsy into EDTA Eppendorf tubes (Milian S A, CatNoTOM-14, Fisher Scientific, Wohlen, Switzerland), or into serum tubes (CB300Z, Sarstedt, Nümbrecht, Germany).
Brain was removed immediately after decapitation, rinsed with saline and sectioned sagitally down the midline. The left half of the cerebellum was used to analyze compound level and was placed into a glass tube (Chromacol, 125×5-SV T051, Welwyn Garden City, United Kingdom), weighed and frozen in dry-ice, the left half of the forebrain (without olfactory bulb) was used for Aβ analysis, and was frozen on a metal plate on dry ice and placed into protein Lo-bind tube (003 0108.116, Eppendorf, Hamburg, Germany).
Ventral and dorsal skin were taken to analyze compound level, weighed and frozen on dry-ice.
Brain samples were mixed with 2 volumes of KH2PO4 buffer and homogenized using the Covaris® device. Skin samples were mixed with approx. 6-fold volumes of methanol/water and homogenized using a Precellys tube. Either 30 μL of blood, brain or skin homogenate were spiked with a structurally related internal standard and subsequently mixed with an at least 6-fold excess volume acetonitrile for protein precipitation. The supernatant was injected directly into the LC/MS/MS system for analysis.
For tissue exposure, only data at 4 and 24 h were available.

Aβ42 [2] = test: Formic acid soluble Aβ42 in APP23 mouse forebrain; assay type: in vivo
Description: as §1, §2

## C[C@@]1(c2nc(NC(=O)c3ncc(C(F)(F)F)cc3Cl)ccc2F)CO[C@@](C)(C(F)(F)F)C(N)=N1 [Compound 1, N-(6-((3R,6R)-5-amino-3,6-dimethyl-6-(trifluoromethyl)-3,6-dihydro-2H-1,4-oxazin-3-yl)-5-fluoropyridin-2-yl)-3-chloro-5-(trifluoromethyl)picolinamide]
Aβ42 [1]; 2 mg, E4 heterozygotes
  Aβ42 % change from baseline, Mean (SD): −23 (9) %
  Aβ42 % change from baseline, Median: −23%
Aβ42 [1]; 2 mg, E4 non-carriers
  Aβ42 % change from baseline, Mean (SD): −24 (9) %
  Aβ42 % change from baseline, Median: −21%
Aβ42 [1]; 10 mg, E4 heterozygotes
  Aβ42 % change from baseline, Mean (SD): −66 (7) %
  Aβ42 % change from baseline, Median: −63%
Aβ42 [1]; 10 mg, E4 non-carriers
  Aβ42 % change from baseline, Mean (SD): −65 (5) %
  Aβ42 % change from baseline, Median: −66%
Aβ42 [1]; 35 mg, E4 heterozygotes
  Aβ42 % change from baseline, Mean (SD): −83 (5) %
  Aβ42 % change from baseline, Median: −85%
Aβ42 [1]; 35 mg, E4 non-carriers
  Aβ42 % change from baseline, Mean (SD): −81 (6) %
  Aβ42 % change from baseline, Median: −83%
Aβ42 [1]; 85 mg, E4 heterozygotes
  Aβ42 % change from baseline, Mean (SD): −88 (2) %
  Aβ42 % change from baseline, Median: −88%
Aβ42 [1]; 85 mg, E4 non-carriers
  Aβ42 % change from baseline, Mean (SD): −90 (2) %
  Aβ42 % change from baseline, Median: −90%
Aβ42 [1]; month 3, 2 mg QD
  Aβ42 in CSF percent change from baseline, Difference (90% CI) Cmpd 1-Placebo: −21.24 (−24.28, −18.21) %
  Aβ42 in CSF percent change from baseline, LSmean (SE): −24.00 (1.277) %
Aβ42 [1]; month 3, 10 mg QD
  Aβ42 in CSF percent change from baseline, Difference (90% CI) Cmpd 1-Placebo: −61.39 (−64.47, −58.31) %
  Aβ42 in CSF percent change from baseline, LSmean (SE): −64.15 (1.308) %
Aβ42 [1]; month 3, 35 mg QD
  Aβ42 in CSF percent change from baseline, Difference (90% CI) Cmpd 1-Placebo: −79.73 (−82.73, −76.73) %
  Aβ42 in CSF percent change from baseline, LSmean (SE): −82.49 (1.250) %
Aβ42 [1]; month 3, 85 mg QD
  Aβ42 in CSF percent change from baseline, Difference (90% CI) Cmpd 1-Placebo: −86.62 (−89.76, −83.49) %
  Aβ42 in CSF percent change from baseline, LSmean (SE): −89.38 (1.348) %
sAPPα; 0.03 g/kg vs vehicle
  sAPPα change vs vehicle: +44%
sAPPα; 0.3 g/kg dose
  increase in sAPPα: 3 fold
sAPPα; 0.3 g/kg vs vehicle
  sAPPα change vs vehicle: +279.8%
Aβ40; APP23, 0.03 g/kg vs vehicle
  Formic acid soluble Aβ40 change vs vehicle: −18.1%
Aβ40; APP23, 0.3 g/kg vs vehicle
  Formic acid soluble Aβ40 change vs vehicle: −79.2%
In vivo
  Kp: 3.2
In vivo; 8 umol/kg
  AUC(0-t): 3.43 µM·h
In vivo; 50 umol/kg
  AUC(0-t): 28.9 µM·h
Aβ42 [2]; APP23, 0.03 g/kg vs vehicle
  Formic acid soluble Aβ42 change vs vehicle: −16.3%
Aβ42 [2]; APP23, 0.3 g/kg vs vehicle
  Formic acid soluble Aβ42 change vs vehicle: −86.2%
